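Method: 48-hour compound exposure of cells in 96-well plates, five concentrations, linear interpolation of endpoints. Here, GI50 denotes the concentration required for 50% inhibition of growth. TGI denotes the concentration required for complete inhibition of growth.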
What was measured:
Experiment in all cases: NCI anticancer screen, dose series, 48 h
786-0 renal = tested on: 786-0 renal
A549 NSCLC = tested on: A549 NSCLC
KM12 colon = tested on: KM12 colon
OVCAR-3 ovarian = tested on: OVCAR-3 ovarian
PC-3 prostate = tested on: PC-3 prostate
SW-620 colon = tested on: SW-620 colon
TK-10 renal = tested on: TK-10 renal
HCT-15 colon = tested on: HCT-15 colon
NCI-H23 lung = tested on: NCI-H23 lung
U251 CNS = tested on: U251 CNS

Row | Compound | GI50 (786-0 renal) [µM] | TGI (786-0 renal) [µM] | GI50 (A549 NSCLC) [µM] | TGI (A549 NSCLC) [µM] | GI50 (KM12 colon) [µM] | TGI (KM12 colon) [µM] | GI50 (OVCAR-3 ovarian) [µM] | TGI (OVCAR-3 ovarian) [µM] | GI50 (PC-3 prostate) [µM] | TGI (PC-3 prostate) [µM] | GI50 (SW-620 colon) [µM] | TGI (SW-620 colon) [µM] | GI50 (TK-10 renal) [µM] | TGI (TK-10 renal) [µM] | GI50 (HCT-15 colon) [µM] | TGI (HCT-15 colon) [µM] | GI50 (NCI-H23 lung) [µM] | TGI (NCI-H23 lung) [µM] | GI50 (U251 CNS) [µM] | TGI (U251 CNS) [µM]
1 | Cl.Fc1c[c-]c(-c2ccccn2)c(F)c1.[Pt].c1ccc([PH+](C[PH+](c2ccccc2)c2ccccc2)c2ccccc2)cc1 | 0.211 | 0.468 | 0.206 | 1.34 | 0.276 | 1 | 0.184 | 0.442 | 0.276 | 1.14 | 0.197 | 0.494 | 0.274 | 1.43 |  |  |  |  |  | 
2 | CC(=O)/C=C/c1ccc(OCc2ccc(Cl)cc2)cc1 | 718 | > 1000 | > 1000 | > 1000 | 513 | > 1000 | > 1000 | > 1000 | 725 | > 1000 | > 1000 | > 1000 | 827 | > 1000 | 498 | > 1000 | 720 | > 1000 | > 1000 | > 1000
3 | Cc1nc2ccccc2nc1N=Nc1ccccc1 | 26.9 | > 100 | 37.3 | > 100 | 11.9 | 93.5 | 12.9 | 82.1 | 6.57 | 60.2 |  |  | 48.8 | > 100 | 16.3 | > 100 | 14.4 | 51.1 | 35.9 | > 100
4 | O=C(O)c1c(Br)c(Br)c(Br)c(Br)c1C1c2ccc(O)cc2Oc2cc(O)ccc21 |  | > 100 |  | > 100 |  | > 100 |  | > 100 |  | > 100 |  | > 100 |  | > 100 |  | > 100 |  |  |  | > 100
5 | COC(=O)[C@H](Cc1cn(C)cn1)NC(=O)[C@H](C)NC(=O)Nc1cc(C(F)(F)F)cc(C(F)(F)F)c1 | > 10 | > 10 | > 10 | > 10 | > 10 | > 10 | > 10 | > 10 | > 10 | > 10 | > 10 | > 10 | > 10 | > 10 | > 10 | > 10 | > 10 | > 10 | > 10 | > 10
6 | COc1cc2ccnc3c(=C(SC)SC)c(=O)c(c1OC)c23 |  | 23.1 |  | > 100 |  | 53.5 |  | 28.4 |  |  |  | 31 |  | 27.1 |  | 29.8 |  |  |  | > 100
7 | COc1c(N2CCN(CN3C(=O)C(=O)c4cc(Cl)ccc43)C(C)C2)c(F)cc2c(=O)c(C(=O)O)cn(C3CC3)c12 (stereo not drawn) | > 100 | > 100 | 49.4 | > 100 | 35.2 | > 100 | 30 | > 100 | 10.8 | > 100 | 14.2 | 75.8 | 27.1 | > 100 | 31.7 | > 100 | 22 | > 100 | 41.3 | > 100
8 | O=C(NCCCl)SCCO |  | > 100 |  | > 100 |  | > 100 |  | > 100 |  |  |  | > 100 |  | > 100 |  | > 100 |  | > 100 |  | > 100
9 | COC(=O)C(C(=O)OC)C(Br)C(Br)C(Br)c1ccccc1 (stereo not drawn) | 11.9 | 25.3 | 16.8 | 32.6 | 17 | 32.4 | 2.98 | 7.63 | 11.5 | 24.6 | 3.29 | 11.4 |  |  | 2.83 | 11 |  |  | 14.8 | 28
10 | COc1cc(Cl)cc(-c2nn(-c3cccc(NC(=O)Nc4ccc(Cl)c(Cl)c4)c3)cc2-c2ccncc2)c1 | 2.31 | 7.84 | 1.48 | 15.3 | 2.02 | 10.8 | 1.56 | 29.4 | 1.13 | 5.28 | 3.43 | > 100 |  |  | 2.51 | 31.5 | 2.62 | 9.04 | 1.7 | 6.03
11 | NC(=O)NC1C(C(=O)O)N(Cc2ccccc2)C(=O)N1Cc1ccccc1 (stereo not drawn) |  | > 100 |  | > 100 |  | > 100 |  | > 100 |  |  |  | > 100 |  | > 100 |  | > 100 |  | > 100 |  | > 100
12 | CCC1(CN(C)C)CC/C(=C\c2ccc(OC)c(OC)c2)C1=O (stereo not drawn) |  | > 100 |  | > 100 |  | > 100 |  | > 100 |  |  |  | > 100 |  | > 100 |  | > 100 |  | > 100 |  | > 100
13 | COC1CC(N)C(O)C(C)O1 (stereo not drawn) |  | > 100 |  |  |  | > 100 |  | > 100 |  | > 100 |  | > 100 |  |  |  | > 100 |  | > 100 |  | > 100
14 | N#CC1=C(O)NC(O)=C(C#N)C1c1ccc(C2C(C#N)=C(O)NC(O)=C2C#N)cc1 |  | > 100 |  | > 100 |  | > 100 |  | > 100 |  |  |  | > 100 |  | > 100 |  | > 100 |  | > 100 |  | > 100
15 | CC(=O)NC(C=O)C(O[C@H](C)C(=O)NC(C)C(=O)NC(CCC(N)=O)C(=O)OCc1ccccc1)C(O)C(O)COC(=O)CCNc1c2ccccc2nc2cccc([N+](=O)[O-])c12 (stereo partly drawn) |  | 18.7 |  | 5.13 |  | 3.75 |  | 4.01 |  |  |  | 7.44 |  | 53.6 |  | 30 |  | 9.45 |  | 7.14
16 | O=c1[nH]cnc2c(COCCO)c[nH]c12 |  | > 100 |  |  |  | > 100 |  | > 100 |  |  |  | > 100 |  | > 100 |  | > 100 |  | > 100 |  | > 100
17 | NC(=O)CC(N=Cc1nc(-c2ccccc2)oc1O)C(=O)O (stereo not drawn) |  | > 100 |  | > 100 |  | > 100 |  | > 100 |  |  |  | > 100 |  | > 100 |  | > 100 |  | > 100 |  | > 100
